PubChem BioAssay (NCI)
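Following 48 hours of exposure in 96-well plates, responses at five concentrations were used to interpolate endpoints linearly. Abbreviation: GI50, concentration required for 50% inhibition of growth. TGI marks complete inhibition of growth.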

How the values were obtained:
Assay in all cases: DTP human tumour cell line panel, 48 h
BT-549 breast = tested on: BT-549 breast
CCRF-CEM leukemia = tested on: CCRF-CEM leukemia
HCT-116 colon = tested on: HCT-116 colon
K-562 leukemia = tested on: K-562 leukemia
MALME-3M melanoma = tested on: MALME-3M melanoma
NCI-H23 lung = tested on: NCI-H23 lung
RPMI-8226 leukemia = tested on: RPMI-8226 leukemia
SK-MEL-28 melanoma = tested on: SK-MEL-28 melanoma
SNB-19 CNS = tested on: SNB-19 CNS
T-47D breast = tested on: T-47D breast

SMILES | GI50 (BT-549 breast) [µM] | TGI (BT-549 breast) [µM] | GI50 (CCRF-CEM leukemia) [µM] | TGI (CCRF-CEM leukemia) [µM] | GI50 (HCT-116 colon) [µM] | TGI (HCT-116 colon) [µM] | GI50 (K-562 leukemia) [µM] | TGI (K-562 leukemia) [µM] | GI50 (MALME-3M melanoma) [µM] | TGI (MALME-3M melanoma) [µM] | GI50 (NCI-H23 lung) [µM] | TGI (NCI-H23 lung) [µM] | GI50 (RPMI-8226 leukemia) [µM] | TGI (RPMI-8226 leukemia) [µM] | GI50 (SK-MEL-28 melanoma) [µM] | TGI (SK-MEL-28 melanoma) [µM] | GI50 (SNB-19 CNS) [µM] | TGI (SNB-19 CNS) [µM] | GI50 (T-47D breast) [µM] | TGI (T-47D breast) [µM]
CCc1nc2cc(/C=C/C(=O)NO)ccc2c(=O)n1CCc1ccc(F)cc1 | 2.84 | 9.14 | 1.39 | > 100 | 0.49 | 2.93 | 2.37 | > 100 | 1.83 | 12.4 | 1.62 | 3.7 | 0.99 | > 100 | 1.85 | 4.15 | 1.82 | 5.34 | 0.629 | 6.23
C=C1C(=O)OC2CC3(C)CCCC(C)C3=CC12 (stereo not drawn) | – | 18.5 | – | 4.53 | – | 15.5 | – | 6.61 | – | 16.7 | – | 19.9 | – | – | – | 12.2 | – | 25.8 | – | 11
O=C(Nc1nc(-c2ccc(Cl)cc2)nc2c1sc(=S)n2-c1ccccc1)C(F)(F)F | 6.37 | 38.2 | > 100 | > 100 | 2.63 | 8.04 | 6.37 | > 100 | 2.89 | 7.08 | 5.45 | 26.8 | 8.37 | > 100 | 6.01 | > 100 | 7.18 | 37.5 | 2.05 | 5.05
NNC(=S)Nc1cccc(Cl)c1 | – | > 100 | – | > 100 | – | > 100 | – | > 100 | – | > 100 | – | > 100 | – | > 100 | – | > 100 | – | > 100 | – | > 100
CC(C)CCC(=O)[C@@H](C)[C@H]1[C@@H](OC2OCC(O)C(O)C2NS(C)(=O)=O)C[C@H]2[C@@H]3CC=C4C[C@@H](O)CC[C@]4(C)[C@H]3CC[C@]12C (stereo partly drawn) | 0.245 | 4.93 | 0.424 | 2.47 | 0.715 | 5.74 | 1.37 | 5.55 | 0.91 | 4.29 | 3.3 | 12.7 | 0.12 | 0.419 | 0.53 | 1.53 | 1.34 | 6.77 | 3.93 | 23
O=S(=O)(Nc1ccc2ccccc2c1)c1ccc(-c2cnc(C3CC3)o2)cc1 | 2.81 | 19.3 | 1.64 | > 100 | 0.746 | 12.7 | 0.394 | > 100 | 0.999 | 24 | 3.38 | 22.5 | 3.18 | 24.8 | 4.8 | 20.8 | 1.49 | > 100 | 1.01 | 58.3
NC(=Nc1nc(-c2ccccn2)cc2ccccc12)c1ccccn1 | 0.197 | > 100 | 0.00229 | – | 0.00151 | > 100 | 0.0199 | 5.3 | 0.126 | – | 0.0743 | > 61.6 | < 0.0175 | 0.515 | 0.323 | > 100 | – | > 89.5 | 0.00636 | –
CC1=NN(C(=O)c2ccncc2)C(=O)C1N=Nc1ccc2ccccc2c1 (stereo not drawn) | – | > 100 | – | > 100 | – | > 100 | – | > 70.7 | – | > 100 | – | > 100 | – | > 100 | – | > 100 | – | > 100 | – | > 100
N#Cc1c(N)nc(N2CCSCC2)c(C#N)c1-c1ccc(O)cc1 | 23.3 | 98 | 26.4 | > 100 | – | – | 19.8 | 58.3 | 15.2 | 94.4 | 17.4 | 36 | 17.3 | 48.5 | 15.5 | 35 | 27.9 | 98.9 | 12.8 | 85.8
COC(=O)C1=C(C(=O)OC)C2OC1c1cc3ccccc3cc12 | – | 12 | – | > 100 | – | 4.29 | – | – | – | 6 | – | 11.8 | – | 5.41 | – | 4.09 | – | 33.5 | – | 7.49
O=C(Nc1cccc(Cl)c1)c1cc(N=Nc2ccc([N+](=O)[O-])cc2Cl)ccc1O | 2.35 | 7.31 | 2.16 | 5.81 | 2.81 | 8.25 | 1.95 | 4.72 | 2.17 | 5.92 | 1.93 | 4.58 | – | – | 2.88 | 10.9 | 3.07 | > 100 | 1.62 | 5.57
O=C(NNC(=S)Nc1ccccc1)c1ccccn1 | 7.41 | > 100 | 2.18 | 25.3 | 3.02 | > 100 | 3.95 | > 100 | – | – | 6.95 | > 100 | 2.69 | 38.4 | 2.8 | > 100 | 2.95 | > 100 | 6.55 | > 100
CCCCCCN(C)Cc1ccc(OCCOc2ccc(CN(C)CCCCCC)cc2)cc1 | 1.47 | 3.01 | – | – | 1.01 | 2.21 | 0.452 | > 100 | 1.13 | 2.87 | 1.52 | 3.42 | 1.62 | 25.4 | 1.45 | 2.88 | 1.71 | 3.87 | 1.32 | 3.26
COC(=O)C1=C(O)[C@H](C(=O)OC)[C@]2(O)[C@@H](C(=O)OC)[C@H]1C[C@@H](c1ccc(OC(=O)/C=C/c3ccco3)cc1)[C@@H]2C(=O)OC | 22.5 | 49.4 | – | – | 4.9 | 17.6 | 19.7 | > 100 | – | – | – | – | 0.293 | 57.5 | 29.1 | > 100 | 22.6 | 87.5 | > 100 | > 100
COc1ccc(/C=C2\CC(C)CC3C2=NN(c2ccccc2)C3c2ccc(OC)c(OC)c2)cc1OC (stereo not drawn) | 4.58 | 79.7 | 4.02 | > 100 | – | – | 1.85 | 5.4 | 8.64 | > 100 | 4.49 | 27.2 | 3.38 | > 100 | 4.87 | 18.3 | 7.39 | > 100 | 4.48 | > 100
